Where “and” joins values, the source holds several entries; their conditions need not be identical. Identical values can stand only once. Like-named read-outs stand apart in the source and are kept apart here. Marks after values point to notes of the source that are not given here.
Legend:
[1] = test system: 6 Hz psychomotor seizures in CF-1 mice; experiment: Mouse 6 Hz psychomotor seizure assay (34 milliampere, 3 s); format: in vivo
Protocol: It was evaluated whether the combination of both compounds is favorable or unfavorable for efficacy by dosing Compound A and Levetiracetam alone and in combination, each at a dose that produces sub-maximal efficacy on its own. […] Plasma and brain samples were analyzed to gain an understanding of how the combination of Compound A and Levetiracetam may affect pharmacokinetics and pharmacodynamics. […] 6 Hz Psychomotor Seizure Assay: […] The animal was then securely restrained and a pair of electrodes was applied to the eyes (Electro Convulsive Therapy Unit 57800, Ugo Basile). […] Data Processing and Analysis: Statistical data analysis was performed using GraphPad Prism (version 8.2.1). Dose-response data was analyzed using a Kruskal-Wallis test, followed by Dunn's multiple comparisons. […] Dose- and concentration-response curves were generated using the Hill Langmuir equation: […]

[2] = test system: CF-1 mice; experiment: Observation for clinical signs in 6 Hz studies; format: in vivo, mouse; details: Compound A 8 mg/kg PO, Study 3A
Protocol: Any qualitative changes from normal behavior were recorded.

[3] = Plasma and brain concentrations after MES testing (UHPLC-ESI-MS/MS); details: for concentration at 0.5 h / concentration at 2 h: CF-1, mouse, in vivo, po;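 as to all read-outs here: brain and plasma were sampled from mice right after the efficacy test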
[4] = Compound A 0.25 mg/kg PO 2 h alone (phenytoin study), 0.25 mg/kg
[5] = Compound A 0.75 mg/kg PO 2 h alone (phenytoin study), 0.75 mg/kg

Cc1cc(N2CCc3cc(F)ccc3C2)cc(C)c1NC(=O)CC(C)(C)C [Compound A, N-[4-(6-fluoro-3,4-dihydro-1H-isoquinolin-2-yl)-2,6-dimethylphenyl]-3,3-dimethylbutanamide]
ED20 ([1]; Compound A PO 1 h, Study 3A dose response curve): 4 mg/kg and 4.13 mg/kg
ED50 ([1]; Mus musculus, Compound A PO 1 h, Study 3A dose response curve): 6.48 mg/kg
EC50 ([1]; Mus musculus, Compound A PO 1 h, Study 3A, read-out: brain EC50): 540 nM
EC50 ([1]; Mus musculus, Compound A PO 1 h, Study 3A, read-out: plasma EC50): 350 nM
Fraction Seizing ([1]; Studies 3B+3C combined, Compound A 4 mg/kg PO 1 h alone): 13/14*
Fraction Seizing ([1]; Study 3A, Compound A 1 mg/kg PO, 1 h): 8/8
Fraction Seizing ([1]; Study 3A, Compound A 3 mg/kg PO, 1 h): 8/8
Fraction Seizing ([1]; Study 3A, Compound A 5 mg/kg PO, 1 h): 5/8
Fraction Seizing ([1]; Study 3A, Compound A 8 mg/kg PO, 1 h): 3/8
Fraction Seizing ([1]; Study 3B, Compound A 4 mg/kg PO 1 h alone): 8/8
Fraction Seizing ([1]; Study 3C, Compound A 4 mg/kg PO 1 h alone): 5/6*
animals protected from seizing ([1]; Study 3C, Compound A 4 mg/kg PO alone): 1/7
brain concentration of the one animal that showed tremor and was cold to the touch [2]: 1.65 µM
plasma concentration of the one animal that showed tremor and was cold to the touch [2]: 1.16 µM
concentration at 0.5 h ([3]; 1 mg/kg, Concentration Brain, Compound A 1 mg/kg PO single dose, tissue collection 0.5 hr): 270 nM
concentration at 2 h ([3]; 1 mg/kg, Concentration Brain, Compound A 1 mg/kg PO single dose, tissue collection 2 hr): 190 nM
concentration at 0.5 h ([3]; 1 mg/kg, Concentration Brain, Compound A 1 mg/kg PO, 0.5 hr): 97.9 ng/g
concentration at 2 h ([3]; 1 mg/kg, Concentration Brain, Compound A 1 mg/kg PO, 2 hr): 70.2 ng/g
concentration at 0.5 h ([3]; 1 mg/kg, Concentration Plasma, Compound A 1 mg/kg PO single dose, tissue collection 0.5 hr): 130 nM
concentration at 2 h ([3]; 1 mg/kg, Concentration Plasma, Compound A 1 mg/kg PO single dose, tissue collection 2 hr): 100 nM
concentration at 0.5 h ([3]; 1 mg/kg, Concentration Plasma, Compound A 1 mg/kg PO, 0.5 hr): 48.9 ng/mL
concentration at 2 h ([3]; 1 mg/kg, Concentration Plasma, Compound A 1 mg/kg PO, 2 hr): 35.8 ng/mL
concentration at 0.5 h ([3]; 2 mg/kg, Concentration Brain, Compound A 2 mg/kg PO single dose, tissue collection 0.5 hr): 360 nM
concentration at 2 h ([3]; 2 mg/kg, Concentration Brain, Compound A 2 mg/kg PO single dose, tissue collection 2 hr): 210 nM
concentration at 0.5 h ([3]; 2 mg/kg, Concentration Brain, Compound A 2 mg/kg PO, 0.5 hr): 132 ng/g
concentration at 2 h ([3]; 2 mg/kg, Concentration Brain, Compound A 2 mg/kg PO, 2 hr): 75.8 ng/g
concentration at 0.5 h ([3]; 2 mg/kg, Concentration Plasma, Compound A 2 mg/kg PO single dose, tissue collection 0.5 hr): 220 nM
concentration at 2 h ([3]; 2 mg/kg, Concentration Plasma, Compound A 2 mg/kg PO single dose, tissue collection 2 hr): 130 nM
concentration at 0.5 h ([3]; 2 mg/kg, Concentration Plasma, Compound A 2 mg/kg PO, 0.5 hr): 80.7 ng/mL
concentration at 2 h ([3]; 2 mg/kg, Concentration Plasma, Compound A 2 mg/kg PO, 2 hr): 46.7 ng/mL
concentration at 0.5 h ([3]; 4 mg/kg, Concentration Brain, Compound A 4 mg/kg PO single dose, tissue collection 0.5 hr): 640 nM
concentration at 2 h ([3]; 4 mg/kg, Concentration Brain, Compound A 4 mg/kg PO single dose, tissue collection 2 hr): 360 nM
concentration at 0.5 h ([3]; 4 mg/kg, Concentration Brain, Compound A 4 mg/kg PO, 0.5 hr): 235 ng/g
concentration at 2 h ([3]; 4 mg/kg, Concentration Brain, Compound A 4 mg/kg PO, 2 hr): 131 ng/g
concentration at 0.5 h ([3]; 4 mg/kg, Concentration Plasma, Compound A 4 mg/kg PO single dose, tissue collection 0.5 hr): 420 nM
concentration at 2 h ([3]; 4 mg/kg, Concentration Plasma, Compound A 4 mg/kg PO single dose, tissue collection 2 hr): 230 nM
concentration at 0.5 h ([3]; 4 mg/kg, Concentration Plasma, Compound A 4 mg/kg PO, 0.5 hr): 154 ng/mL
concentration at 2 h ([3]; 4 mg/kg, Concentration Plasma, Compound A 4 mg/kg PO, 2 hr): 83 ng/mL
concentration at 0.5 h ([3]; 8 mg/kg, Concentration Brain, Compound A 8 mg/kg PO single dose, tissue collection 0.5 hr): 1090 nM
concentration at 2 h ([3]; 8 mg/kg, Concentration Brain, Compound A 8 mg/kg PO single dose, tissue collection 2 hr): 560 nM
concentration at 0.5 h ([3]; 8 mg/kg, Concentration Brain, Compound A 8 mg/kg PO, 0.5 hr): 402 ng/g
concentration at 2 h ([3]; 8 mg/kg, Concentration Brain, Compound A 8 mg/kg PO, 2 hr): 208 ng/g
concentration at 0.5 h ([3]; 8 mg/kg, Concentration Plasma, Compound A 8 mg/kg PO single dose, tissue collection 0.5 hr): 710 nM
concentration at 2 h ([3]; 8 mg/kg, Concentration Plasma, Compound A 8 mg/kg PO single dose, tissue collection 2 hr): 430 nM
concentration at 0.5 h ([3]; 8 mg/kg, Concentration Plasma, Compound A 8 mg/kg PO, 0.5 hr): 261 ng/mL
concentration at 2 h ([3]; 8 mg/kg, Concentration Plasma, Compound A 8 mg/kg PO, 2 hr): 158 ng/mL
Brain concentration, Mean [3, 4]: 0.04 µM
Plasma concentration, Mean [3, 4]: 0.01 μM and 4.3 ng/mL
Brain concentration, Mean [3, 5]: 0.12 µM
Plasma concentration, Mean [3, 5]: 0.03 μM and 11.7 ng/mL

From patent US20220288057A1, “CONJOINT THERAPY FOR TREATING SEIZURE DISORDERS” (XENON PHARMACEUTICALS INC., priority 2021, published 2022)
